Read-outs that look alike come from different tables or passages of the source.
What was measured:
RBL-2H3 cells = assay: Inhibition of serotonin liberation from IgE-sensitized, antigen-stimulated RBL-2H3 cells; assay type: cell-based; conditions: Rattus norvegicus, [3H]-serotonin release, IgE-sensitized cells stimulated with specific antigen
Source text: (1) Inhibitory Effects on Various Mediators Release from Rat Basophilic Leukemia Cell Line (RBL-2H3)
RBL-2H3cells (i.e., a cell line originating in rat cells), by stimulation with IgE sepecific antigen, not only release histamine and serotonin but also release and produce cytokines such as TNF α and prostaglandins which are inflammatory mediators. In this experimental system, inhibitory effects on various mediators release were examined by using serotonin as an indication.
The cells were beforehand labeled with [^3H]-labeled serotonin and, at the same time, sensitized with the IgE antibody. After incubating with the compounds of the present invention, they were stimulated with the specific antigen. Then the inhibitory activity of each compound was calculated from the amount of the [^3H]-labeled serotonin thus liberated into the medium due to the stimulation and the amount of [^3H]-labeled serotonin liberated when no compound of the present invention was added.

human basophils = assay: Inhibition of mediator (histamine, peptide leukotriene) liberation from human basophils stimulated with mite antigen; assay type: cell-based; conditions: leukocyte fraction, enzyme immunoassay
Experimental: (2) Inhibitory Effects on Various Mediators Release from Human Basophils
6 ml of 6% dextran (for separating leukocytes, having a high molecular weight) was added to 20 ml of heparinized blood. After stirring well, the resulting mixture was allowed to stand at 37° C. for 30 min and thus erythrocytes were precipitated. The upper layer was taken up and phosphate buffered saline was added thereto followed by centrifugation at 185 g for 8 minutes to give a crude leukocyte fraction. These cells were subjected to hypotonic hematolysis and then suspended in D-PBS(+) containing 0.1%-BSA. The resulting suspension was used in the subsequent experiment as the leukocyte fraction containing basophils. 0.4 ml of this cell suspension was preliminarily heated to 37° C. for 5 min and then 0.05 ml of a specimen solution was added thereto followed by a pretreatment at 37° C. for 15 min. Next, 0.05 ml of a mite antigen solution was added thereto to induce an antigen-antibody reaction. After 10 min, the reaction was ceased by ice-cooling. Then the reaction mixture was centrifuged again at 185 g for 10 min and histamine and peptide leukotrienes in the resulting supernatant were determined by using enzyme immunoassay kits. From the results of the assay, the activities of the a heterocyclic ring condensed benzothiazine compound of inhibiting the liberation of histamine and peptide leukotriene were determined.
The results are given in Table 2, wherein the term “leukotriene” means peptide leukotriene.

[1] = histamine, read-out: IC50 (μM) in mediator liberation from human basophils: histamine
[2] = peptide leukotriene, read-out: IC50 (μM) in mediator liberation from human basophils: leukotriene

Compound | IC50 (RBL-2H3 cells) | IC50 (human basophils; [1]) | IC50 (human basophils; [2])
Cc1ccc2c(c1C)N(CCCNCc1cccc(F)c1O)c1cnccc1[S+]2[O-] (centres unmarked) [Example 41] | 3 µM | – | –
Cc1ccc2c(c1C)N(CCCNCc1ccccc1)c1cc(Br)cnc1[S+]2[O-] (centres unmarked) [Example 45] | 1 µM | – | –
Cc1ccc2c(c1C)N(CCCNCN1CCN(Cc3ccccc3)CC1)c1cccnc1[S+]2[O-] (centres unmarked) [Example 26] | 2 µM | – | –
Cc1ccc2c(c1C)N(CCCNCc1ccccc1)c1cnccc1[S+]2[O-] (centres unmarked) [Example 36] | 4 µM | – | –
CCOc1ccc2c(n1)[S+]([O-])c1ccc(C)c(C)c1N2CCCNCc1ccccc1 (centres unmarked) [Example 52] | 3 µM | 10 to 30 µM | 3 µM
Cc1ccc2c(c1C)N(CCCNCc1ccccc1O)c1cccnc1[S+]2[O-] (centres unmarked) [Example 16] | 2 µM | 10 µM | 10 to 30 µM
COc1ccsc1CNCCCN1c2c(Br)csc2[S+]([O-])c2ccc(C)c(C)c21 (centres unmarked) [Example 9] | 0.5 µM | 10 to 30 µM | 3 µM
COc1ccc(CNCCCN2c3ccsc3[S+]([O-])c3ccc(C)c(C)c32)o1 (centres unmarked) [Example 5] | 6 µM | – | –
Cc1ccc2c(c1C)N(CCCNCc1ccc(Cl)cc1Cl)c1cccnc1[S+]2[O-] (centres unmarked) [Example 31] | 2 µM | 10 to 30 µM | 10 µM
Cc1ccc2c(c1C)N(CCCCNCc1ccccc1)c1cccnc1[S+]2[O-] (centres unmarked) [Example 19] | 1 µM | – | –
Cc1ccc2c(c1C)N(CCCNCc1ccccc1)c1c(sc(CO)c1Br)[S+]2[O-] (centres unmarked) [Example 12, 1-Bromo-9-(3-benzylaminopropyl)-2-hydroxymethyl-7,8-dimethyl-3-thieno[1,4]benzothiazine-4-oxide] | 4 µM | 10 µM | 3 µM
COc1cccc(CNCCCN2c3cnccc3[S+]([O-])c3ccc(C)c(C)c32)c1O (centres unmarked) [Example 37] | 3 µM | 30 µM | 30 µM
Cc1ccc2c(c1C)N(CCCN)c1cccnc1[S+]2[O-] (centres unmarked) [Example 13] | 3 µM | – | –
CCCOc1ccc2c(n1)[S+]([O-])c1ccc(C)c(C)c1N2CCCNCc1ccccc1 (centres unmarked) [Example 49] | 2 µM | 10 to 30 µM | 3 µM
COc1c(CNCCCN2c3cccnc3[S+]([O-])c3ccc(C)c(C)c32)ccc(Cl)c1Cl (centres unmarked) [Example 33] | 2 µM | 10 to 30 µM | 3 to 10 µM
Cc1ccc2c(c1C)N(CCCNC(C)(C)c1ccccc1)c1cccnc1[S+]2[O-] (centres unmarked) [Example 34] | 5 µM | – | –
COc1cccc(CNCCCN2c3cccnc3[S+]([O-])c3ccc(C)c(C)c32)c1O (centres unmarked) [Example 17] | 2 µM | 10 to 30 µM | 10 to 30 µM
Cc1ccc2c(c1C)N(CCCN)c1ccsc1[S+]2[O-] (centres unmarked) [Example 3, 9-(3-Aminopropyl)-7,8-dimethyl-3-thieno[1,4]benzothiazine-4-oxide] | 8 µM | – | –
COc1ccccc1CNCCCN1c2cccnc2[S+]([O-])c2ccc(C)c(C)c21 (centres unmarked) [Example 20] | 5 µM | – | –
Cc1ccc2c(c1C)N(CCCNCc1ccccc1N(C)C)c1cnccc1[S+]2[O-] (centres unmarked) [Example 38] | 4 µM | – | –

Compound | IC50 (RBL-2H3 cells) | IC50 (human basophils; [1]) | IC50 (human basophils; [2])
Cc1ccc2c(c1C)N(CCCN(C)Cc1ccccc1)c1cccnc1[S+]2[O-] (centres unmarked) [Example 35] | 3 µM | – | –
Cc1ccc2c(c1C)N(CCCNCc1ccccc1)c1cccnc1[S+]2[O-] (centres unmarked) [Example 15] | 0.5 µM | – | –
COc1ccc2c(n1)[S+]([O-])c1ccc(C)c(C)c1N2CCCNCc1ccccc1 (centres unmarked) [Example 43] | 2 µM | 30 µM | 10 µM
Cc1ccc2c(c1C)N(CCCNCc1cccc(C)c1O)c1cccnc1[S+]2[O-] (centres unmarked) [Example 18] | 2 µM | 30 µM | 10 to 30 µM
Cc1ccc2c(c1C)N(CCCNCc1ccccc1)c1c(CO)csc1[S+]2[O-] (centres unmarked) [Example 11, 9-(3-benzylaminopropyl)-1-hydroxymethyl-7,8dimethyl-3-thieno[1,4]benzothiazine-4-oxide] | 5 µM | 10 µM | 3 µM
Cc1ccc2c(c1C)N(CCCNCc1ccccn1)c1cnccc1[S+]2[O-] (centres unmarked) [Example 40] | 4 µM | – | –
Cc1ccc2c(c1C)N(CCCNCc1cccs1)c1ccsc1[S+]2[O-] (centres unmarked) [Example 4, 7,8-Dimethyl-9-[3-(2-thiophenyl)methylaminopropyl]-3-thieno[1,4]benzothiazine-4-oxide] | 2 µM | 10 to 30 µM | 10 µM
Cc1ccc2c(c1C)N(CCCNC(C)(C)c1ccccc1)c1ccsc1[S+]2[O-] (centres unmarked) [Example 2] | – | 30 µM | 10 to 30 µM
COc1ccsc1CNCCCN1c2ccsc2[S+]([O-])c2ccc(C)c(C)c21 (centres unmarked) [Example 6] | 2 µM | 30 µM | 10 to 30 µM
Cc1cnc2c(c1)N(CCCNCc1ccccc1)c1c(ccc(C)c1C)[S+]2[O-] (centres unmarked) [Example 47] | 3 µM | – | –
COc1ccc(CNCCCN2c3cccnc3[S+]([O-])c3ccc(C)c(C)c32)cc1 (centres unmarked) [Example 25] | 2 µM | – | –
COc1cccc(CNCCCN2c3cccnc3[S+]([O-])c3ccc(C)c(C)c32)c1 (centres unmarked) [Example 24] | 4 µM | – | –
Cc1ccc2c(c1C)N(CCCNCc1ccccc1)c1ccsc1[S+]2[O-] (centres unmarked) [Example 1, 9-(3-Benzylaminopropyl)-7,8-dimethyl-3-thieno [1,4]benzothiazine-4-oxide] | 2 µM | 10 to 30 µM | 10 µM
Cc1ccc2c(c1C)N(CCCNCc1ccccc1)c1c(Br)csc1[S+]2[O-] (centres unmarked) [Example 8, 9-(3-benzylaminopropyl)-7,8-dimethyl-3-thieno[1,4]benzothiazine-4-oxide] | 1 µM | 10 µM | 3 µM
Cc1ccc2c(c1C)N(CCCNCc1ccccc1)c1cc(Cl)cnc1[S+]2[O-] (centres unmarked) [Example 46] | 2 µM | – | –
Cc1ccc2c(n1)[S+]([O-])c1ccc(C)c(C)c1N2CCCNCc1ccccc1 (centres unmarked) [Example 44] | 2 µM | – | –
Cc1ccc2c(c1C)N(CCCNC(C)(C)c1ccccc1)c1c(Br)csc1[S+]2[O-] (stereo not drawn) [Example 7, 1-Bromo-7,8-dimethyl-9-[3-(α,α-dimethylbenzyl)aminopropyl]-3-thieno[1,4]benzothiazine-4-oxide] | 2 µM | 3 to 10 µM | 3 to 10 µM
Cc1ccc2c(c1C)N(CCCNCc1ccccc1)c1cc(C#N)cnc1[S+]2[O-] (centres unmarked) [Example 48] | 4 µM | – | –
Cc1ccc2c(c1C)N(CCCNCc1cccc(F)c1O)c1c(Br)csc1[S+]2[O-] (centres unmarked) [Example 10] | 0.5 µM | 30 µM | 3 to 10 µM
Cc1ccc2c(c1C)N(CCCNCN1CCN(Cc3ccccc3)CC1)c1cnccc1[S+]2[O-] (centres unmarked) [Example 39] | 3 µM | – | –
